PubChem BioAssay AID1745844 (Carcinogenic Potency Database (CPDB), 2022)
The source made the active and inactive calls. The rule behind the calls is not given here.

Tested on: rodent lifetime carcinogenesis bioassay, tumor incidence TD50
Assay: carcinogenic potency in animals, long-term in vivo studies, CPDB compilation (AID 1745844)

COc1ccc(N)cc1N
TD50 (mouse, strain B6C3F1, females, in feed, site: all sites, lesion: lymphoma, dosed 78 weeks, study length 96 weeks): 262 mg/kg/day | TD50 (mouse, strain B6C3F1, females, in feed, site: any site (literature study), lesion: several types, types named in the paper, dosed 78 weeks, study length 96 weeks): 311 mg/kg/day | TD50 (mouse, strain B6C3F1, females, in feed, site: liver, lesion: hepatocellular adenoma + hepatocellular carcinoma + neoplastic nodule, dosed 78 weeks, study length 96 weeks): 7350 mg/kg/day | TD50 (mouse, strain B6C3F1, females, in feed, site: lung, lesion: alveolar/bronchiolar adenoma + alveolar/bronchiolar carcinoma, dosed 78 weeks, study length 96 weeks): 10900 mg/kg/day | TD50 (mouse, strain B6C3F1, females, in feed, site: thyroid gland, lesion: follicular-cell adenoma + follicular-cell carcinoma, dosed 78 weeks, study length 96 weeks): 1060 mg/kg/day | TD50 (mouse, strain B6C3F1, females, in feed, site: thyroid gland, lesion: follicular-cell adenoma, dosed 78 weeks, study length 96 weeks): 1450 mg/kg/day | TD50 (mouse, strain B6C3F1, males, in feed, site: any site (literature study), lesion: several types, types named in the paper, dosed 78 weeks, study length 96 weeks): 354 mg/kg/day | TD50 (mouse, strain B6C3F1, males, in feed, site: liver, lesion: hepatocellular adenoma + hepatocellular carcinoma + neoplastic nodule, dosed 78 weeks, study length 96 weeks): 926 mg/kg/day | TD50 (mouse, strain B6C3F1, males, in feed, site: lung, lesion: alveolar/bronchiolar adenoma + alveolar/bronchiolar carcinoma, dosed 78 weeks, study length 96 weeks): 2560 mg/kg/day | TD50 (mouse, strain B6C3F1, males, in feed, site: thyroid gland, lesion: follicular-cell adenoma, dosed 78 weeks, study length 96 weeks): 791 mg/kg/day | TD50 (rat, strain Fischer 344, females, in feed, site: Zymbal's gland, lesion: sebaceous adenocarcinoma, dosed 78 weeks, study length 107 weeks): 665 mg/kg/day | TD50 (rat, strain Fischer 344, females, in feed, site: any site (literature study), lesion: several types, types named in the paper, dosed 78 weeks, study length 107 weeks): 181 mg/kg/day | TD50 (rat, strain Fischer 344, females, in feed, site: any site (literature study), lesion: several types, types named in the paper, dosed 83 weeks, study length 86 weeks): 67.3 mg/kg/day | TD50 (rat, strain Fischer 344, females, in feed, site: clitoral gland + uterus, endometrium, lesion: carcinoma, NOS + adenocarcinoma, NOS + papillary carcinoma, dosed 78 weeks, study length 107 weeks): 408 mg/kg/day | TD50 (rat, strain Fischer 344, females, in feed, site: clitoral gland, lesion: adenoma, NOS + carcinoma, NOS + cystadenoma, NOS + squamous-cell carcinoma + squamous-cell papilloma, dosed 78 weeks, study length 107 weeks): 416 mg/kg/day | TD50 (rat, strain Fischer 344, females, in feed, site: clitoral gland, lesion: several types, types named in the paper, dosed 83 weeks, study length 86 weeks): 113 mg/kg/day | TD50 (rat, strain Fischer 344, females, in feed, site: clitoral gland, lesion: squamous-cell carcinoma, sebaceous, dosed 83 weeks, study length 86 weeks): 162 mg/kg/day | TD50 (rat, strain Fischer 344, females, in feed, site: liver, lesion: hepatocellular adenoma + hepatocellular carcinoma + neoplastic nodule, dosed 78 weeks, study length 107 weeks): 14500 mg/kg/day | TD50 (rat, strain Fischer 344, females, in feed, site: mammary gland, lesion: several types, types named in the paper, dosed 83 weeks, study length 86 weeks): 1290 mg/kg/day | TD50 (rat, strain Fischer 344, females, in feed, site: thyroid gland + Zymbal's gland, lesion: adenocarcinoma, NOS + follicular-cell carcinoma + papillary cystadenocarcinoma, NOS + sebaceous adenocarcinoma, dosed 78 weeks, study length 107 weeks): 301 mg/kg/day | TD50 (rat, strain Fischer 344, females, in feed, site: thyroid gland, lesion: adenocarcinoma, NOS + follicular-cell carcinoma + papillary cystadenocarcinoma, NOS, dosed 78 weeks, study length 107 weeks): 425 mg/kg/day | TD50 (rat, strain Fischer 344, females, in feed, site: thyroid gland, lesion: follicular-cell adenoma, dosed 83 weeks, study length 86 weeks): 296 mg/kg/day | TD50 (rat, strain Fischer 344, females, in feed, site: thyroid gland, lesion: several types, types named in the paper, dosed 83 weeks, study length 86 weeks): 162 mg/kg/day | TD50 (rat, strain Fischer 344, males, in feed, site: any site (literature study), lesion: several types, types named in the paper, dosed 78 weeks, study length 107 weeks): 135 mg/kg/day | TD50 (rat, strain Fischer 344, males, in feed, site: ear canal + ear + Zymbal's gland, lesion: sebaceous adenocarcinoma + squamous-cell carcinoma, dosed 78 weeks, study length 107 weeks): 709 mg/kg/day | TD50 (rat, strain Fischer 344, males, in feed, site: ear canal + ear + preputial gland + skin + thyroid gland + Zymbal's gland, lesion: sebaceous adenocarcinoma + squamous-cell carcinoma + adenoma, NOS + carcinoma, NOS + cystadenoma, NOS + papillary adenoma + basal-ce, dosed 78 weeks, study length 107 weeks): 72.6 mg/kg/day | TD50 (rat, strain Fischer 344, males, in feed, site: liver, lesion: hepatocellular adenoma + hepatocellular carcinoma + neoplastic nodule, dosed 78 weeks, study length 107 weeks): 1610 mg/kg/day | TD50 (rat, strain Fischer 344, males, in feed, site: preputial gland, lesion: adenoma, NOS + carcinoma, NOS + cystadenoma, NOS + papillary adenoma, dosed 78 weeks, study length 107 weeks): 351 mg/kg/day | TD50 (rat, strain Fischer 344, males, in feed, site: preputial gland, lesion: adenoma, NOS + cystadenoma, NOS + papillary adenoma, dosed 78 weeks, study length 107 weeks): 530 mg/kg/day | TD50 (rat, strain Fischer 344, males, in feed, site: skin, lesion: basal-cell carcinoma + sebaceous adenocarcinoma + squamous-cell carcinoma, dosed 78 weeks, study length 107 weeks): 358 mg/kg/day | TD50 (rat, strain Fischer 344, males, in feed, site: thyroid gland, lesion: adenocarcinoma, NOS + follicular-cell carcinoma + papillary adenocarcinoma + papillary cystadenocarcinoma, NOS, dosed 78 weeks, study length 107 weeks): 192 mg/kg/day | TD50 (rat, strain Fischer 344, males, in feed, site: thyroid gland, lesion: adenocarcinoma, NOS, dosed 78 weeks, study length 107 weeks): 252 mg/kg/day | TD50 (rat, strain Fischer 344, males, in feed, site: thyroid gland, lesion: c-cell adenoma + c-cell carcinoma, dosed 78 weeks, study length 107 weeks): 319 mg/kg/day

CN(C)C(=O)Nc1ccc(Cl)c(Cl)c1
carcinogen call (mouse, strain B6AKF1, females, oral dosing, site: any site (literature study), lesion: several types, types named in the paper, dosed 76 weeks, study length 76 weeks): negative (inactive) | carcinogen call (mouse, strain B6AKF1, females, oral dosing, site: liver, lesion: hepatoma, dosed 76 weeks, study length 76 weeks): negative (inactive) | carcinogen call (mouse, strain B6AKF1, females, oral dosing, site: lung, lesion: adenoma, dosed 76 weeks, study length 76 weeks): negative (inactive) | TD50 (mouse, strain B6AKF1, males, oral dosing, site: any site (literature study), lesion: several types, types named in the paper, dosed 76 weeks, study length 76 weeks): 260 mg/kg/day (inactive) | carcinogen call (mouse, strain B6AKF1, males, oral dosing, site: liver, lesion: hepatoma, dosed 76 weeks, study length 76 weeks): negative (inactive) | TD50 (mouse, strain B6AKF1, males, oral dosing, site: lung, lesion: adenoma, dosed 76 weeks, study length 76 weeks): 437 mg/kg/day (inactive) | TD50 (mouse, strain B6C3F1, females, oral dosing, site: any site (literature study), lesion: several types, types named in the paper, dosed 76 weeks, study length 76 weeks): 388 mg/kg/day (inactive) | carcinogen call (mouse, strain B6C3F1, females, oral dosing, site: liver, lesion: hepatoma, dosed 76 weeks, study length 76 weeks): negative (inactive) | TD50 (mouse, strain B6C3F1, females, oral dosing, site: lung, lesion: adenoma, dosed 76 weeks, study length 76 weeks): 600 mg/kg/day (inactive) | TD50 (mouse, strain B6C3F1, males, oral dosing, site: any site (literature study), lesion: several types, types named in the paper, dosed 76 weeks, study length 76 weeks): 361 mg/kg/day (inactive) | TD50 (mouse, strain B6C3F1, males, oral dosing, site: liver, lesion: hepatoma, dosed 76 weeks, study length 76 weeks): 1150 mg/kg/day (inactive) | TD50 (mouse, strain B6C3F1, males, oral dosing, site: lung, lesion: adenoma, dosed 76 weeks, study length 76 weeks): 1150 mg/kg/day (inactive)

COC(=O)C1=C(C)NC(C)=C(C(=O)OCCN2CCN(C(c3ccccc3)c3ccccc3)CC2)C1c1cccc([N+](=O)[O-])c1 (stereo not given)
TD50 (mouse, strain ICR, females, in feed, site: liver, lesion: hepatocellular adenoma, dosed 78 weeks, study length 78 weeks): 545 mg/kg/day (inactive) | TD50 (mouse, strain ICR, females, in feed, site: lung, lesion: alveolar/bronchiolar adenoma, dosed 78 weeks, study length 78 weeks): 438 mg/kg/day (inactive) | carcinogen call (mouse, strain ICR, males, in feed, site: liver, lesion: hepatocellular adenoma, dosed 78 weeks, study length 78 weeks): negative (inactive) | carcinogen call (mouse, strain ICR, males, in feed, site: liver, lesion: hepatocellular carcinoma, dosed 78 weeks, study length 78 weeks): negative (inactive) | carcinogen call (mouse, strain ICR, males, in feed, site: lung, lesion: alveolar/bronchiolar adenoma, dosed 78 weeks, study length 78 weeks): negative (inactive) | TD50 (rat, strain Charles River CD (Sprague-Dawley), females, in feed, site: liver, lesion: hepatocellular adenoma, dosed 104 weeks, study length 104 weeks): 157 mg/kg/day (inactive) | carcinogen call (rat, strain Charles River CD (Sprague-Dawley), females, in feed, site: liver, lesion: hepatocellular carcinoma, dosed 104 weeks, study length 104 weeks): negative (inactive) | TD50 (rat, strain Charles River CD (Sprague-Dawley), males, in feed, site: liver, lesion: hepatocellular adenoma, dosed 104 weeks, study length 104 weeks): 8240 mg/kg/day (inactive) | TD50 (rat, strain Charles River CD (Sprague-Dawley), males, in feed, site: liver, lesion: hepatocellular carcinoma, dosed 104 weeks, study length 104 weeks): 405 mg/kg/day (inactive)

Cc1ccccc1S(N)(=O)=O
TD50 (rat, strain Charles River CD (Sprague-Dawley), females, in feed, site: liver, lesion: Kupffer-cell sarcoma, dosed 142 weeks, study length 142 weeks): 8520 mg/kg/day | TD50 (rat, strain Charles River CD (Sprague-Dawley), females, in feed, site: liver, lesion: neoplastic nodule, dosed 142 weeks, study length 142 weeks): 21700 mg/kg/day | TD50 (rat, strain Charles River CD (Sprague-Dawley), females, in feed, site: mammary gland, lesion: adenocarcinoma, dosed 142 weeks, study length 142 weeks): 12.2 mg/kg/day | TD50 (rat, strain Charles River CD (Sprague-Dawley), males, in feed, site: liver, lesion: angiosarcoma, dosed 142 weeks, study length 142 weeks): 17200 mg/kg/day | TD50 (rat, strain Charles River CD (Sprague-Dawley), males, in feed, site: liver, lesion: neoplastic nodule, dosed 142 weeks, study length 142 weeks): 35900 mg/kg/day | TD50 (rat, strain Sprague-Dawley, both sexes, in feed, site: all sites, lesion: leukemia, dosed 133 weeks, study length 142 weeks): 375 mg/kg/day | TD50 (rat, strain Sprague-Dawley, both sexes, in feed, site: any site (literature study), lesion: malignant tumor, dosed 133 weeks, study length 142 weeks): 13300 mg/kg/day | TD50 (rat, strain Sprague-Dawley, both sexes, in feed, site: urinary bladder, lesion: several types, types named in the paper, dosed 133 weeks, study length 142 weeks): 3960 mg/kg/day | carcinogen call (rat, strain Wistar, females, in drinking water, site: liver, lesion: hepatocellular carcinoma, dosed 102 weeks, study length 102 weeks): negative (inactive)

CC[N+](=O)[O-]
TD50 (rat, strain Long-Evans BLU:(LE), females, inhaled, site: liver, lesion: hepatocellular carcinoma, dosed 105 weeks, study length 105 weeks): 2190 mg/kg/day (inactive) | carcinogen call (rat, strain Long-Evans BLU:(LE), males, inhaled, site: liver, lesion: one or several types, types not named, dosed 105 weeks, study length 105 weeks): negative (inactive)

Cc1c(N(C)CS(=O)(=O)O)c(=O)n(-c2ccccc2)n1C
TD50 (mouse, strain B6C3F1, females, in drinking water, site: liver, lesion: hepatocellular carcinoma, dosed 75 weeks, study length 86 weeks): 7120 mg/kg/day | TD50 (mouse, strain B6C3F1, females, in drinking water, site: liver, lesion: several types, types named in the paper, dosed 75 weeks, study length 86 weeks): 742 mg/kg/day | TD50 (mouse, strain B6C3F1, males, in drinking water, site: liver, lesion: several types, types named in the paper, dosed 77 weeks, study length 86 weeks): 547 mg/kg/day | TD50 (rat, strain F344/DuCrj, males, in drinking water, site: liver, lesion: neoplastic nodule, dosed 72 weeks, study length 83 weeks): 400 mg/kg/day | TD50 (rat, strain Wistar, females, in feed, site: liver, lesion: adenoma, dosed 104 weeks, study length 130 weeks): 33100 mg/kg/day (inactive) | TD50 (rat, strain Wistar, females, in feed, site: liver, lesion: angiosarcoma, dosed 104 weeks, study length 130 weeks): 41400 mg/kg/day (inactive) | TD50 (rat, strain Wistar, females, in feed, site: liver, lesion: liver-cell carcinoma, dosed 104 weeks, study length 130 weeks): 8330 mg/kg/day (inactive) | TD50 (rat, strain Wistar, females, in feed, site: mammary gland, lesion: adenoma, dosed 104 weeks, study length 130 weeks): 328 mg/kg/day (inactive) | TD50 (rat, strain Wistar, males, in feed, site: liver, lesion: adenoma, dosed 104 weeks, study length 130 weeks): 3340 mg/kg/day (inactive) | carcinogen call (rat, strain Wistar, males, in feed, site: liver, lesion: anaplastic carcinoma, dosed 104 weeks, study length 130 weeks): negative (inactive)
